Results published in ChEMBL document CHEMBL5291721, “A preclinical secondary pharmacology resource illuminates target-adverse drug reaction associations of marketed drugs” (Nat Commun, 2023).

Tests used:
Vasopressin V2 receptor = Vasopressin V2 receptor (Homo sapiens, UniProt P30518)
[1] = molecular target: cGMP-inhibited 3',5'-cyclic phosphodiesterase 3A (Homo sapiens, UniProt Q14432); type: functional
[2] = molecular target: T1, Alpha-1A adrenergic receptor (Homo sapiens, UniProt P35348); type: functional, cell-based
T1 sequence (P35348 whole entry): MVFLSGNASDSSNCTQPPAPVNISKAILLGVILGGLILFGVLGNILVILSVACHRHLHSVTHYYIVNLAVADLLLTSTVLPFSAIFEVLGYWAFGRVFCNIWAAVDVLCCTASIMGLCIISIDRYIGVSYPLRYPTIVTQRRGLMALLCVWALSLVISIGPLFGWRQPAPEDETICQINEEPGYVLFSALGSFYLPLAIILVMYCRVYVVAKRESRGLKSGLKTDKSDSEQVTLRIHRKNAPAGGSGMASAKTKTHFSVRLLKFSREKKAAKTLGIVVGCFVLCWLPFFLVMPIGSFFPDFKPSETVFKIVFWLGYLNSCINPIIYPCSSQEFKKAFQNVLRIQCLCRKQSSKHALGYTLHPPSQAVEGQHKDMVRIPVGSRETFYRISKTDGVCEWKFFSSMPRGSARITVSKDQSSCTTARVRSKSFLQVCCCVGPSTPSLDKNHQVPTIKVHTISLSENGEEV

Cannabinoid receptor 1 = Cannabinoid receptor 1 (Homo sapiens, UniProt P21554); type: functional, cell-based
Chain of Cannabinoid receptor 1 (P21554 whole entry): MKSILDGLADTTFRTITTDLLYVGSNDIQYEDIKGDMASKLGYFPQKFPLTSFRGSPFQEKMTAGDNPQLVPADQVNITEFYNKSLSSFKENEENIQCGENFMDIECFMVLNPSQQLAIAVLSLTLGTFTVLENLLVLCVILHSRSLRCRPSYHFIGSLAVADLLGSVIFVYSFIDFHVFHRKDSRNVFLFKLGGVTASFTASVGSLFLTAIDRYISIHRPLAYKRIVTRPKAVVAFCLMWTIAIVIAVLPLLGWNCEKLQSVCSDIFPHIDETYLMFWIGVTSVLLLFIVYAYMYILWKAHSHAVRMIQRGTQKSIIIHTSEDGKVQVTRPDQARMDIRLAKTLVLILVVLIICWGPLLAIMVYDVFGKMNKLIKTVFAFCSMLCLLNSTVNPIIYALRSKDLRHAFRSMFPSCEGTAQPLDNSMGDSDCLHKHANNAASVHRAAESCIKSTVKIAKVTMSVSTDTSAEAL

[3] = molecular target: T2, Neuropeptide Y receptor type 1 (Homo sapiens, UniProt P25929)
T2 sequence (P25929 whole entry): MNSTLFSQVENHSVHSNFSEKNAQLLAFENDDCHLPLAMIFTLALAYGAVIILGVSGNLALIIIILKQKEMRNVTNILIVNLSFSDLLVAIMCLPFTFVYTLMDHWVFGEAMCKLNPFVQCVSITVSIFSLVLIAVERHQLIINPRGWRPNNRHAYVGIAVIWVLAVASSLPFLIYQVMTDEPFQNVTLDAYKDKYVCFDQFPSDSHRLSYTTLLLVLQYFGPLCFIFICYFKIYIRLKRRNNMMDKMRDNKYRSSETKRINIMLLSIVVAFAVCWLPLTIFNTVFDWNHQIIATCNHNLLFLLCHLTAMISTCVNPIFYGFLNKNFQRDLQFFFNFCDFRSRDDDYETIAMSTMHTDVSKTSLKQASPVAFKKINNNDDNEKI

[4] = molecular target: Beta-2 adrenergic receptor (Homo sapiens, UniProt P07550)
Chain of Beta-2 adrenergic receptor (P07550 whole entry): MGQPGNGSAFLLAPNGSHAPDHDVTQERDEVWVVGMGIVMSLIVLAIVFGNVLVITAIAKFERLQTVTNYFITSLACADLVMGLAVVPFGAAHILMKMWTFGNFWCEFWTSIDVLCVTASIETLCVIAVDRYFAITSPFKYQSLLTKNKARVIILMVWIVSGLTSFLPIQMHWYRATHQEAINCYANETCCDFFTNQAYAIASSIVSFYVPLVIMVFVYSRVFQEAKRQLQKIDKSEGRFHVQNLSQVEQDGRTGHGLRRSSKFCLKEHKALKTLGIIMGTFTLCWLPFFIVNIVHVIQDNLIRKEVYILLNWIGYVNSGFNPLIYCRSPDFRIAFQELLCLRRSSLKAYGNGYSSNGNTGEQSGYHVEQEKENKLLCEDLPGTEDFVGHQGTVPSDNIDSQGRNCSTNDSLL

[5] = molecular target: T3, Prostaglandin G/H synthase 1 (Rattus norvegicus, UniProt Q63921); type: functional
T3 sequence (Q63921 whole entry): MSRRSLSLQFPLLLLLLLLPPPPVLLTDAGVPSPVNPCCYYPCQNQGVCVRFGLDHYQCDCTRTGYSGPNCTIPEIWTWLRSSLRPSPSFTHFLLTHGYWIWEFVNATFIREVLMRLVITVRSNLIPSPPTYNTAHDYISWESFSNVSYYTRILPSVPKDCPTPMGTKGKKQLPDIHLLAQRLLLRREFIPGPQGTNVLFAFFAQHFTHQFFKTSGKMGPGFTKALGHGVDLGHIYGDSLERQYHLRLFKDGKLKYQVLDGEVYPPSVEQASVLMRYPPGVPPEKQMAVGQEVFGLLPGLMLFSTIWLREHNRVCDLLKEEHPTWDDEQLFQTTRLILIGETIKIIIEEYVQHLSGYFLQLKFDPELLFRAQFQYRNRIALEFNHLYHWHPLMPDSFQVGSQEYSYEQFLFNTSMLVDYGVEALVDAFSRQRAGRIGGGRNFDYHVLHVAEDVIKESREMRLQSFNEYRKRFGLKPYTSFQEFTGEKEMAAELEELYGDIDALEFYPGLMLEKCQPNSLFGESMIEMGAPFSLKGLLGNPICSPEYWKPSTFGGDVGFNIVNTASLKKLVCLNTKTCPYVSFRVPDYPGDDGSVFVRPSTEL

Adenosine receptor A3 = molecular target: T4, Adenosine receptor A3 (Homo sapiens, UniProt P0DMS8)
T4 sequence (P0DMS8 whole entry): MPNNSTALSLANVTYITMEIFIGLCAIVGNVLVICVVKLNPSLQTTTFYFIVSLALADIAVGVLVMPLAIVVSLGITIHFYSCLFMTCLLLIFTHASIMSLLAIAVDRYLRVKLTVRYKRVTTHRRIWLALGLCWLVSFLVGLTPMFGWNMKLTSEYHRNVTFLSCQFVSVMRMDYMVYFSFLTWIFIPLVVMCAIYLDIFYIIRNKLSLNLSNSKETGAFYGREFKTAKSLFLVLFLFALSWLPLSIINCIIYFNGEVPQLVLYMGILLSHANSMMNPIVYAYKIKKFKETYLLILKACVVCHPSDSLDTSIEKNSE

Melanocortin receptor 4 = Melanocortin receptor 4 (Homo sapiens, UniProt P32245)
Chain of Melanocortin receptor 4 (P32245 whole entry): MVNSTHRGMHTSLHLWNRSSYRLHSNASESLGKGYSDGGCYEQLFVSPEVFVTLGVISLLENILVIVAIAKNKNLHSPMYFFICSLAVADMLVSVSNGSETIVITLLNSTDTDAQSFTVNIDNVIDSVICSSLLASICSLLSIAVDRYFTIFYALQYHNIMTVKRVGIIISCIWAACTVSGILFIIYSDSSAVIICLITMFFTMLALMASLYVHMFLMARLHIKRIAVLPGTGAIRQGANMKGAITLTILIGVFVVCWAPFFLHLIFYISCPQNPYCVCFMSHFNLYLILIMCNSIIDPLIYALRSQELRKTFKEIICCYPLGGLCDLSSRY

Adenosine receptor A1 = molecular target: T5, Adenosine receptor A1 (Homo sapiens, UniProt P30542)
T5 sequence (P30542 whole entry): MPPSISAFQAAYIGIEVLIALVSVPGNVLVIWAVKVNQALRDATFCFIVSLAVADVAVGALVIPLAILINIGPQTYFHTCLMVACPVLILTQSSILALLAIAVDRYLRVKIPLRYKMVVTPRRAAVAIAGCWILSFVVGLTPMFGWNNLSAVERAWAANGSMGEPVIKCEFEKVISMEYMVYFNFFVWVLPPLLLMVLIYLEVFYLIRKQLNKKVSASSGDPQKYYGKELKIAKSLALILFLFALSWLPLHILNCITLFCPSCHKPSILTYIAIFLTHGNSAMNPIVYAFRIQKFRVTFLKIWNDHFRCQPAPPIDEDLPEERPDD

[6] = molecular target: T6, Gastrin/cholecystokinin type B receptor (Homo sapiens, UniProt P32239)
T6 sequence (P32239 whole entry): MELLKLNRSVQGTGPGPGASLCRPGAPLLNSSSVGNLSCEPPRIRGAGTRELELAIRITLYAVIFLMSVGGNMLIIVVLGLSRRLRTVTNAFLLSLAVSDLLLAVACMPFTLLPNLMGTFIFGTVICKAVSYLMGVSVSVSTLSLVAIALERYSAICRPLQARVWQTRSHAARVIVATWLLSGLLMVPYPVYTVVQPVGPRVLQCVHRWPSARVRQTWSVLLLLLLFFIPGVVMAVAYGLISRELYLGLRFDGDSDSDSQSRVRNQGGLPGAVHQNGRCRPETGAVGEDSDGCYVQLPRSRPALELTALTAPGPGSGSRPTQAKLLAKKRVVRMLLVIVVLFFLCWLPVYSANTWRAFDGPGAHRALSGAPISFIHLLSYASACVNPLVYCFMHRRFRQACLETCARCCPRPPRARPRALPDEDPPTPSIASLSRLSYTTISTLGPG
Further: assay procedure not described here.

Chain of Vasopressin V2 receptor (P30518 whole entry): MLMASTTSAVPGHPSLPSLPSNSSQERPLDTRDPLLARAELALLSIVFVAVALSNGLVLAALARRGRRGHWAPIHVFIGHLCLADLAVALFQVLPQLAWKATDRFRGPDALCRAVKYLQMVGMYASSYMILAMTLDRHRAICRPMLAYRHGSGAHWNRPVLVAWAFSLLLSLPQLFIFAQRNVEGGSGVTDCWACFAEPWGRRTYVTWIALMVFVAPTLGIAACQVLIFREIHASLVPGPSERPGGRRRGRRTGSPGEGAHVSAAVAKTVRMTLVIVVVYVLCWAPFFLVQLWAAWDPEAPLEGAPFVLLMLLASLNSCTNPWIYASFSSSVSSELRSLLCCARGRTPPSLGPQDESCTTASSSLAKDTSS
Chain of cGMP-inhibited 3',5'-cyclic phosphodiesterase 3A (Q14432 whole entry): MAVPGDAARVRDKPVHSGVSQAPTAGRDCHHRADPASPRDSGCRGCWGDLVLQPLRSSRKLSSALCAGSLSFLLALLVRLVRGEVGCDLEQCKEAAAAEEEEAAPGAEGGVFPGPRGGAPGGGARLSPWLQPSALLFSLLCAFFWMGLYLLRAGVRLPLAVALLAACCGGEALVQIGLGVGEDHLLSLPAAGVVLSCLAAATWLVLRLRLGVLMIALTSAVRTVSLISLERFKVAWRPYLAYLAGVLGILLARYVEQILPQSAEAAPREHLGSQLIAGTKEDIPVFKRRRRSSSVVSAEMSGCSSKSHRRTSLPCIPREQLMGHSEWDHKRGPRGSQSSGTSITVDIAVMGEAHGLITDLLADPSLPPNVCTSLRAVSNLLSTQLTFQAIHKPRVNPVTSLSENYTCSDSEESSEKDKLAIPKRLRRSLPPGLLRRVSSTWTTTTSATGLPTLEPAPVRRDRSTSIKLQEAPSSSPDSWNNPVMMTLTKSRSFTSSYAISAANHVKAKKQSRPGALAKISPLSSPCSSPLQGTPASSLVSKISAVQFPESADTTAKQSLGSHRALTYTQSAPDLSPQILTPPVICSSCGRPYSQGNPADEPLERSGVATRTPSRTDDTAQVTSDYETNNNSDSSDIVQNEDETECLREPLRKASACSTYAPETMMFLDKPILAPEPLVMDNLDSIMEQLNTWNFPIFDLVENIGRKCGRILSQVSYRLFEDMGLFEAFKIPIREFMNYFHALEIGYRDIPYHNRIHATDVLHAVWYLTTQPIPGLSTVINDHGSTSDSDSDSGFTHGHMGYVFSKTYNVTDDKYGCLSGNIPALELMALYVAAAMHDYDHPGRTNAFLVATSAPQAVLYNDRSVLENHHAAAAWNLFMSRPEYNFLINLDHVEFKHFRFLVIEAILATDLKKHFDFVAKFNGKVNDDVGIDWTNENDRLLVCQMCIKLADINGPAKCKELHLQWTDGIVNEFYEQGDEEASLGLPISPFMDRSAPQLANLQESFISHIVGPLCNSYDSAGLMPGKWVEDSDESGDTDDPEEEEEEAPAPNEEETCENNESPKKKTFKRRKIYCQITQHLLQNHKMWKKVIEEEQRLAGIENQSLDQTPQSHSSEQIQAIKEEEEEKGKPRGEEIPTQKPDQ

| Structure (SMILES) | AC50 (Vasopressin V2 receptor) [µM] | AC50 [1] [µM] | AC50 [2] [µM] | AC50 (Cannabinoid receptor 1) [µM] | AC50 [3] [µM] | AC50 [4] [µM] | AC50 [5] [µM] | AC50 (Adenosine receptor A3) [µM] | AC50 (Melanocortin receptor 4) [µM] | AC50 (Adenosine receptor A1) [µM] | AC50 [6] [µM] |
| --- | --- | --- | --- | --- | --- | --- | --- | --- | --- | --- | --- |
| CC1Cc2ccccc2N1NC(=O)c1ccc(Cl)c(S(N)(=O)=O)c1 (stereo not given) [INDAPAMIDE] | > 30 | > 10 | > 30 | > 30 | > 30 | > 10 | > 30 | > 30 | > 30 | > 30 | > 30 |
| CCN(CC)CCCN(c1ccccc1)C1Cc2ccccc2C1 [APRINDINE] | > 30 | > 30 | > 30 | > 30 | > 30 | > 10 | > 30 | > 30 | > 10 | > 30 | > 30 |
| Cc1nnc2n1-c1ccc(Cl)cc1C(c1ccccc1)=NC2 [ALPRAZOLAM] | > 30 | > 30 | > 30 | > 30 | > 30 | > 10 | > 30 | > 30 | > 30 | > 30 | > 30 |
| CN1C2CCCC1CC(NC(=O)c1nn(C)c3ccccc13)C2 (stereo not given) [GRANISETRON] | > 30 | > 10 | > 30 | > 30 | > 30 | > 10 | > 30 | > 30 | > 30 | > 30 | > 30 |
| CCOC(=O)C1=C(C)NC(C)=C(C(=O)OC)C1c1cccc(Cl)c1Cl (stereo not given) [FELODIPINE] | > 30 | > 30 | > 30 | > 30 | > 30 | > 10 | > 30 | 7.91 | > 30 | > 30 | > 30 |
| CC(C)(N)Cc1ccccc1 [PHENTERMINE] | > 30 | > 30 | > 30 | > 30 | > 30 | > 10 | > 30 | > 30 | > 30 | > 30 | > 30 |
| CC(C)CN(C[C@@H](O)[C@H](Cc1ccccc1)NC(=O)O[C@H]1CCOC1)S(=O)(=O)c1ccc(N)cc1 | > 30 | > 30 | > 30 | 12 | > 30 | > 10 | > 10 | > 30 | > 30 | > 30 | > 30 |
| CCN(C(C)=O)c1cccc(-c2ccnc3c(C#N)cnn23)c1 [ZALEPLON] | > 30 | 10 | > 30 | > 30 | > 30 | > 30 | > 30 | > 30 | > 30 | > 30 | > 30 |
| Cc1ccc(-c2ncc(Cl)cc2-c2ccc(S(C)(=O)=O)cc2)cn1 [ETORICOXIB] | > 30 | > 10 | > 30 | > 30 | > 10 | > 10 | > 30 | > 10 | > 10 | > 10 | > 10 |
| COc1ccc(C(Cl)=C(c2ccc(OC)cc2)c2ccc(OC)cc2)cc1 [CHLOROTRIANISENE] | > 30 | > 30 | > 30 | > 30 | > 30 | > 10 | 0.259 | 28 | > 10 | > 30 | > 30 |
